{"source": "patent US6235791A", "about": "“Use of amines to produce drugs for preventing tumor cell proliferation” (Sanofi-Synthelabo, priority 1996, dated 2001)", "assay_type_in_all_cases": "cell-based", "key": {"human myeloma RPMI 8226": {"system": "human myeloma RPMI 8226", "test": "MTT colorimetric proliferation test, 5 days", "settings": "120 h, read-out: percentage of cell proliferation relative to the untreated control taken as 100%", "description": "(§1) Among other cells used, the following lines were routinely cultured in RPMI medium supplemented with 10% foetal calf serum (FCS):\n(§2) The antitumour activity is measured according to the colorimetry method using MTT, 3-(4,5-dimethylthiazole-2,5-diphenyltetrazolium) bromide as described by Mosmann T., Journ. of Im. Methods; 1983, 65, 55.\n(§3) This colorimetric assay makes it possible to measure quantitatively the antitumour activity of a solution containing a compound used according to the invention.\n(§4) According to the procedure used, the suspended cells (such as the myeloma cells) are inoculated at 2×10^3 cells/ml in 1 ml wells in defined medium. The adherent cells (such as the MCF-7 cells) are inoculated at 5×10^4 cells/ml in 1 ml wells in RPMI medium+0.5% FCS overnight. The next day, the cell carpet is washed twice and replaced by the defined medium.\n(§5) The defined medium corresponds to: RPMI+10 μg/ml insulin+10 μg/ml human transferrin.\n(§6) In order to carry out this test, cells are maintained in the presence of the solution containing a compound used according to the invention for 5 days, and the MTT is then added to the culture medium.\n(§7) The 5 day period which was selected corresponds to the optimum time for the activity. After culturing for 5 days, the proliferation of the cells is measured by the test described above. The optical density at 570 nm is measured. A blue coloration develops in the wells where the cells are still alive. The intensity of the coloration is proportional to the quantity of live cells."}, "human myeloma U266": {"system": "human myeloma U266", "test": "MTT colorimetric proliferation test, 5 days", "settings": "U-266, 120 h, read-out: percentage of cell proliferation relative to the untreated control taken as 100%", "description": "as §1, §2, §3, §4, §5, §6, §7"}, "[1]": {"system": "human lung carcinoma A549", "test": "MTT colorimetric proliferation test, 5 days", "settings": "120 h, read-out: percentage of cell proliferation relative to the untreated control taken as 100%", "description": "as §1\nhuman lung carcinoma A549\nas §2, §3, §4, §5, §6, §7"}, "SN 47 p4 normal cells": {"system": "SN 47 p4 normal cells", "test": "proliferation of mammary epithelial cells, IC50 after 6 days", "settings": "Epithelial cell, 144 h, 6 days of treatment", "description": "(§8) Another study was also performed in order to determine the effect of SR 31747 on the in vitro and in vivo growth of mammary and prostate epithelial tumour cells.\n(§9) The study consisted in evaluating the potential antitumour activity of SR 31747 on the growth of a variety of cancerous breast epithelial lines. The study is carried out in vitro on cell cultures, as well as in vivo after inoculation of tumoral mammary lines in \"nude\" athymic mice.\n(§10) Table B--Effect of SR 31747 on the proliferation of mammary epithelial cells. Determination of the IC50 after 6 days of treatment--medium changed every 48 hours"}, "[2]": {"system": "mammary tumoral epithelial cells", "test": "proliferation of tumoral breast epithelial lines, summary statements", "description": "as §8, §9\n(§11) The cell lines which were used are as follows:\nThe hormone-sensitive MCF-7 line originates from a pleural effusion of a breast adenocarcinoma. The antioestrogen-resistant MCF-7LY2 cells were obtained from the MCF-7LCC1 and MCF-7LCC2 lines were developed in nude mice, after inoculation of the MCF-7 cells. The two lines are oestrogen-independent. The MCF-7CC2 cells are also antioestrogen-resistant. The MCF-7AZTD5 line is derived from the MCF-7 line after stable transfection with the H-ras oncogene. The MCF-7AZTD5 cells are antioestrogen-resistant in vitro. All of these lines are maintained on DMEM/F12 (1/1, vol/vol) containing 10% decomplemented foetal calf serum and 16 ng/ml of human insulin. The MCF-7LCC2 line is cultured in the permanent presence of 10^-7 M hydroxytamoxifen. The MDA-MB231 tumoral mammary epithelial cells are oestrogen- and antioestrogen-insensitive. […]"}, "MCF7 AZ": {"system": "MCF7 AZ", "test": "proliferation of mammary epithelial cells, IC50 after 6 days", "settings": "Homo sapiens, 144 h, 10% FCS, 6 days of treatment", "description": "as §8, §9, §11\n(§12) The hormone-sensitive MCF-7 line originates from a pleural effusion of a breast adenocarcinoma. The antioestrogen-resistant MCF-7LY2 cells were obtained from the MCF-7LCC1 and MCF-7LCC2 lines were developed in nude mice, after inoculation of the MCF-7 cells. The two lines are oestrogen-independent. The MCF-7CC2 cells are also antioestrogen-resistant. The MCF-7AZTD5 line is derived from the MCF-7 line after stable transfection with the H-ras oncogene. The MCF-7AZTD5 cells are antioestrogen-resistant in vitro. All of these lines are maintained on DMEM/F12 (1/1, vol/vol) containing 10% decomplemented foetal calf serum and 16 ng/ml of human insulin. The MCF-7LCC2 line is cultured in the permanent presence of 10^-7 M hydroxytamoxifen. The MDA-MB231 tumoral mammary epithelial cells are oestrogen- and antioestrogen-insensitive. They are cultured in L15 medium supplemented with 10% FCS, 1% essential amino acids and 10 μg/ml of human insulin.\n(§13) All the lines are maintained at 37° C. in a humid air/CO2 (95%/5%) atmosphere, except for the MDA-MB231 cells which are cultured in the absence of CO2. THe cell lines are checked regularly free of mycoplasms.\nas §10"}, "MCF7 22HTB RPMI p + 4": {"system": "MCF7 22HTB RPMI p + 4", "test": "proliferation of mammary epithelial cells, IC50 after 6 days", "settings": "Homo sapiens, 144 h; MCF7 22HTB RPMI p + 4, 0.1% FCS, 6 days of treatment", "description": "as §8, §9, §11, §12, §13, §10"}, "MCF7 AZTD5": {"system": "MCF7 AZTD5", "test": "proliferation of mammary epithelial cells, IC50 after 6 days", "settings": "Homo sapiens, MCF7, 144 h, 6 days of treatment", "description": "as §8, §9, §11, §12, §13, §10"}, "MCF7 RPMI p6-7": {"system": "MCF7 RPMI p6-7", "test": "proliferation of mammary epithelial cells, IC50 after 6 days", "settings": "Homo sapiens, MCF7, 144 h, 6 days of treatment", "description": "as §8, §9, §11, §12, §13, §10"}, "MDA MB231 p131": {"system": "MDA MB231 p131", "test": "proliferation of mammary epithelial cells, IC50 after 6 days", "settings": "6 days of treatment", "description": "as §8, §9, §11, §12, §13, §10"}, "LY2 p22-23 (MCF-7LY2)": {"system": "LY2 p22-23 (MCF-7LY2)", "test": "proliferation of mammary epithelial cells, IC50 after 6 days", "settings": "Homo sapiens, Epithelial cell, 144 h; LY2 p22-23, 10% FCS, 6 days of treatment", "description": "as §8, §9, §11, §12, §13, §10"}, "MCF7 p23-25": {"system": "MCF7 p23-25", "test": "proliferation of mammary epithelial cells, IC50 after 6 days", "settings": "Homo sapiens, MCF7, 144 h, 6 days of treatment", "description": "as §8, §9, §11, §12, §13, §10"}, "LCC1 p23-24 (MCF-7LCC1)": {"system": "LCC1 p23-24 (MCF-7LCC1)", "test": "proliferation of mammary epithelial cells, IC50 after 6 days", "settings": "Homo sapiens, Epithelial cell, 144 h, 6 days of treatment", "description": "as §8, §9, §11, §12, §13, §10"}}, "data": [{"compound": "CCN(C/C=C\\c1ccc(C2CCCCC2)c(Cl)c1)C1CCCCC1", "note": "[SR 31747, cis-N-Cyclohexyl-N-ethyl [3-(3-chloro-4-cyclo-hexylphenyl)allyl]amine]", "values": [{"measurement": "activity at 10 pM", "setting": "human myeloma RPMI 8226; RPMI 8226, 10 pM", "result": 100, "unit": "%"}, {"measurement": "activity at 0.0001 µM", "setting": "human myeloma RPMI 8226; RPMI 8226, 100 pM", "result": 91, "unit": "%"}, {"measurement": "activity at 0.001 µM", "setting": "human myeloma RPMI 8226; RPMI 8226, 1 nM", "result": 79, "unit": "%"}, {"measurement": "activity at 0.01 µM", "setting": "human myeloma RPMI 8226; RPMI 8226, 10 nM", "result": 66, "unit": "%"}, {"measurement": "activity at 0.1 µM", "setting": "human myeloma RPMI 8226; RPMI 8226, 100 nM", "result": 54, "unit": "%"}, {"measurement": "activity at 1 µM", "setting": "human myeloma RPMI 8226; RPMI 8226, 1 μM", "result": 9, "unit": "%"}, {"measurement": "activity at 10 µM", "setting": "human myeloma RPMI 8226; RPMI 8226, 10 μM", "result": 6, "unit": "%"}, {"measurement": "activity at 10 pM", "setting": "human myeloma U266; U266, 10 pM", "result": 100, "unit": "%"}, {"measurement": "activity at 0.0001 µM", "setting": "human myeloma U266; U266, 100 pM", "result": 100, "unit": "%"}, {"measurement": "activity at 0.001 µM", "setting": "human myeloma U266; U266, 1 nM", "result": 95, "unit": "%"}, {"measurement": "activity at 0.01 µM", "setting": "human myeloma U266; U266, 10 nM", "result": 82, "unit": "%"}, {"measurement": "activity at 0.1 µM", "setting": "human myeloma U266; U266, 100 nM", "result": 67, "unit": "%"}, {"measurement": "activity at 1 µM", "setting": "human myeloma U266; U266, 1 μM", "result": 52, "unit": "%"}, {"measurement": "activity at 10 µM", "setting": "human myeloma U266; U266, 10 μM", "result": 11, "unit": "%"}, {"measurement": "activity at 10 pM", "setting": "[1]; A549, 10 pM", "result": 100, "unit": "%"}, {"measurement": "activity at 0.0001 µM", "setting": "[1]; A549, 100 pM", "result": 88, "unit": "%"}, {"measurement": "activity at 0.001 µM", "setting": "[1]; A549, 1 nM", "result": 56, "unit": "%"}, {"measurement": "activity at 0.01 µM", "setting": "[1]; A549, 10 nM", "result": 50, "unit": "%"}, {"measurement": "activity at 0.1 µM", "setting": "[1]; A549, 100 nM", "result": 38, "unit": "%"}, {"measurement": "activity at 1 µM", "setting": "[1]; A549, 1 μM", "result": 14, "unit": "%"}, {"measurement": "activity at 10 µM", "setting": "[1]; A549, 10 μM", "result": 10, "unit": "%"}, {"measurement": "IC50", "setting": "SN 47 p4 normal cells; 0.5% FCS", "result": 400, "unit": "nM"}, {"measurement": "IC50", "setting": "SN 47 p4 normal cells; 10% FCS", "result": "> 10000", "unit": "nM"}, {"measurement": "inhibition of cell proliferation at high concentration (cytotoxic effects)", "setting": "[2]; 10^-6 M and occasionally 10^-7 M SR 31747", "result": "virtually total inhibitions of the cell proliferation"}, {"measurement": "action on the proliferation of tumor epithelial lines", "setting": "[2]; reduced concentrations of saline (serum)", "result": "exerts an inhibitory action on the proliferation of all the tumor epithelial lines tested"}, {"measurement": "IC50", "setting": "MCF7 AZ", "result": "> 1000", "unit": "nM"}, {"measurement": "IC50", "setting": "MCF7 22HTB RPMI p + 4", "result": 2, "unit": "nM"}, {"measurement": "IC50", "setting": "MCF7 AZTD5; MCF7 AZTD5, 0.1% FCS", "result": 0.2, "unit": "nM"}, {"measurement": "IC50", "setting": "MCF7 AZTD5; MCF7 AZTD5, 10% FCS", "result": 600, "unit": "nM"}, {"measurement": "IC50", "setting": "MCF7 RPMI p6-7; MCF7 RPMI p6-7, 0% FCS", "result": 3, "unit": "nM"}, {"measurement": "IC50", "setting": "MCF7 RPMI p6-7; MCF7 RPMI p6-7, 0.1% FCS", "result": 7, "unit": "nM"}, {"measurement": "IC50", "setting": "MDA MB231 p131; Homo sapiens, MDA-MB-231, 144 h, MDA MB231 p131, 0.1% FCS", "result": 2, "unit": "nM"}, {"measurement": "IC50", "setting": "MDA MB231 p131; Homo sapiens, MDA-MB-231, 144 h, MDA MB231 p131, 10% FCS", "result": 800, "unit": "nM"}, {"measurement": "IC50", "setting": "MDA MB231 p131; MDA MB231 p131, 10% FCS", "result": 400, "unit": "nM"}, {"measurement": "IC50", "setting": "LY2 p22-23 (MCF-7LY2)", "result": "> 100", "unit": "nM"}, {"measurement": "IC50", "setting": "MCF7 p23-25; MCF7 p23-25, 0.1% FCS", "result": 2, "unit": "nM"}, {"measurement": "IC50", "setting": "MCF7 p23-25; MCF7 p23-25, 0.5% FCS", "result": 100, "unit": "nM"}, {"measurement": "IC50", "setting": "LCC1 p23-24 (MCF-7LCC1); LCC1 p23-24, 0.1% FCS", "result": 2, "unit": "nM"}, {"measurement": "IC50", "setting": "LCC1 p23-24 (MCF-7LCC1); LCC1 p23-24, 5% FCS", "result": 1000, "unit": "nM"}]}]}
